Measured values: patent US12565489B2, “Heterocyclyl pyrimidines and triazines as novel fungicides” (Bayer Aktiengesellschaft, priority 2020, dated 2026)

Key:
[1] = test system: Alternaria alternata; experiment: Alternaria alternata in vitro cell test; assay type: cell-based; settings: 120 h, 20 ppm of active ingredient, 5 days incubation, liquid culture, spectrometric measurement of mycelium growth, read-out: efficacy (inhibition of fungal growth)
Summary of the method: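 Spore suspension of A. alternata in glucose/mycological peptone/yeast extract liquid medium, with compounds added from DMSO solutions at a range of concentrations. After 5 days, mycelium growth was measured spectrometrically. Inhibition was expressed relative to absorbance of fungicide-free control wells.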

[2] = test system: Pyricularia oryzae; experiment: microbe, parasite or virus in culture; assay type: cell-based; settings: 120 h, read-out: efficacy (inhibition of fungal growth)
[3] = test system: Colletotrichum lindemuthianum; experiment: Colletotrichum lindemuthianum in vitro cell test; assay type: cell-based; settings: 144 h, 20 ppm of active ingredient, 6 days incubation, liquid culture, spectrometric measurement of mycelium growth, read-out: efficacy (inhibition of fungal growth)
Summary of the method: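 C. lindemuthianum spores were incubated with DMSO-solubilized compounds in liquid glucose-peptone-yeast extract medium, scoring inhibition of germination and mycelial growth. Mycelial growth was measured spectrometrically after 6 days. Inhibition was calculated from absorbance relative to compound-free control wells.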

[4] = test system: Pyrenophora teres; experiment: Pyrenophora teres in vitro cell test; assay type: cell-based; settings: 144 h, 20 ppm of active ingredient, 6 days incubation, liquid culture, spectrometric measurement of mycelium growth, read-out: efficacy (inhibition of fungal growth)
Summary of the method: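 Spore suspension grown in liquid glucose–peptone–yeast extract medium with compound added from DMSO solution. Mycelium growth read by absorbance after 6 days. Inhibition is relative to compound-free control wells.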

[5] = test system: Botrytis cinerea; experiment: Botrytis cinerea in vitro cell test; assay type: cell-based; settings: 144 h, 20 ppm of active ingredient, 6 days incubation, liquid culture, spectrometric measurement of mycelium growth, read-out: efficacy (inhibition of fungal growth)
Summary of the method: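 B. cinerea spore suspension grown in defined liquid mineral/sucrose medium with DMSO-dissolved compounds for 6 days. Mycelial growth was measured by absorbance, and inhibition was derived relative to fungicide-free control wells.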

[6] = test system: Alternaria brassicae; experiment: In vivo preventive test on Alternaria brassicae (leaf spot on radish or cabbage); settings: 144 h, 500 ppm of active ingredient, preventive spray on young radish or cabbage plants, evaluated 6 days after inoculation, read-out: efficacy
[7] = test system: Botrytis cinerea; experiment: In vivo preventive test on Botrytis cinerea (grey mould); settings: 500 ppm of active ingredient, preventive spray on young gherkin or cabbage plants, evaluated 4 to 5 days after inoculation, read-out: efficacy
Summary of the method: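 Gherkin or cabbage seedlings sprayed preventively with compound (DMSO/acetone/Tween 80 formulation diluted in water); controls got solvent only. Leaves inoculated 24 h later by spraying aqueous B. cinerea spore suspension.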

[8] = test system: Sphaerotheca fuliginea; experiment: In vivo preventive test on Sphaerotheca fuliginea (powdery mildew on cucurbits); settings: Podosphaera fuliginea, 192 h; 500 ppm of active ingredient; preventive spray on young gherkin plants; evaluated 8 days after inoculation; read-out: efficacy
Summary of the method: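 Young gherkin plants were sprayed preventively with compound dissolved in DMSO/acetone/Tween 80 and diluted in water; controls got solvent only. Leaves were inoculated 24 hours later with an aqueous Sphaerotheca fuliginea spore suspension.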

[9] = test system: Colletotrichum lindemuthianum; experiment: In vivo preventive test on Colletotrichum lindemuthianum (leaf spot on bean); settings: 168 h, 500 ppm of active ingredient, preventive spray on young bean plants, evaluated 7 days after inoculation, read-out: efficacy
Summary of the method: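 Young bean plants sprayed with compound dissolved in DMSO/acetone/Tween 80 and diluted in water; vehicle-only plants served as controls. After 24 hours, leaves inoculated by spraying an aqueous suspension of Colletotrichum lindemuthianum spores.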

Cc1ccc(C[C@@H]2CON=C(c3nc(C)ncc3Oc3cccc(Cl)c3)N2)c(Cl)c1 (racemic) [Compound I-018]
90 to 100%: inhibition at 20 ppm [1] | inhibition at 20 ppm [2] | inhibition at 20 ppm [3] | inhibition at 20 ppm [4] | inhibition at 20 ppm [5] | pest or weed control at 500 ppm [6] | pest or weed control at 500 ppm [7] | pest or weed control at 500 ppm [8] | pest or weed control at 500 ppm [9]
